pIC50: −log10 of the molar value.
How the values were obtained:
human TLR7 = molecular target: T1, human TLR7 (Homo sapiens, UniProt Q9NYK1); assay: TLR7 inhibition reporter assay (HEK-Blue SEAP); assay type: cell-based; conditions: HEK-Blue cells overexpressing human TLR7, gardiquimod 7.5 μM, 22 hour incubation
T1 construct: host or cells: HEK-Blue cells
T1 sequence (Q9NYK1 27-1049): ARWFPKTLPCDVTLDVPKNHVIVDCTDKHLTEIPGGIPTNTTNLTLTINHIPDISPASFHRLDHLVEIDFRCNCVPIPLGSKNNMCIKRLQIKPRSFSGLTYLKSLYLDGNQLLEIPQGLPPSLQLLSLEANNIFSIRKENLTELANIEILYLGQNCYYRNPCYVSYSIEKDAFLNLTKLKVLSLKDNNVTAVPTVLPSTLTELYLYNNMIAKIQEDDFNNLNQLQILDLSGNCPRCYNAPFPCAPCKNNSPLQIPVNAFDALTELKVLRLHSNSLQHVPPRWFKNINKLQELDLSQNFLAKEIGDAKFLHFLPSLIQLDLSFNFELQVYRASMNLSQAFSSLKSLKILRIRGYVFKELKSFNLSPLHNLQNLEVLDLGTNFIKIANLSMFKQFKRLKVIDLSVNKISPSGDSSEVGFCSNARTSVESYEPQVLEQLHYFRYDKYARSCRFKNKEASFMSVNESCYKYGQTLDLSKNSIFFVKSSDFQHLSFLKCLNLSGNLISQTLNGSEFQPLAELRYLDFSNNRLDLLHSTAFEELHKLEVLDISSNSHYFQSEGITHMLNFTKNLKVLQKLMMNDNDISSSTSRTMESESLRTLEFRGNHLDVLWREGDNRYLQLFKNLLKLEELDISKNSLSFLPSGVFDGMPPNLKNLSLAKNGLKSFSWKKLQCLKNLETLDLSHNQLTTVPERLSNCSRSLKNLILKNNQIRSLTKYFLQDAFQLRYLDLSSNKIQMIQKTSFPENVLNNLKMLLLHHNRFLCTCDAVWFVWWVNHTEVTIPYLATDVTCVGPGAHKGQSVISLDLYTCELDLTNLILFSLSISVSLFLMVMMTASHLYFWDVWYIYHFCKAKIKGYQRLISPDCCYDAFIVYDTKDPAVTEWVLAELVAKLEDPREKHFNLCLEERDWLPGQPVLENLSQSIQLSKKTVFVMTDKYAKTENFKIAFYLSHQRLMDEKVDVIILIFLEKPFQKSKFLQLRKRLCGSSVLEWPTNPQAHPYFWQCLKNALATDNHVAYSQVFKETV
Procedure, shortened: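 HEK-Blue reporter cells (15,000/well TLR7, 20,000 TLR8) exposed to compound over 0.05 nM–50 μM, agonist-stimulated (R848 for TLR8, gardiquimod for TLR7), 22 h at 37 °C, 5% CO2. SEAP read with HEK-Blue Detection; % inhibition relative to agonist-plus-DMSO and known-inhibitor controls.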

human TLR9 = molecular target: T2, human TLR9 (Homo sapiens, UniProt Q9NR96); assay: TLR9 inhibition reporter assay (HEK-Blue SEAP); assay type: cell-based; conditions: HEK-Blue cells overexpressing human TLR9, ODN2006 5 nM, 22 hour incubation
T2 construct: host or cells: HEK-Blue cells
T2 sequence (Q9NR96 26-1032): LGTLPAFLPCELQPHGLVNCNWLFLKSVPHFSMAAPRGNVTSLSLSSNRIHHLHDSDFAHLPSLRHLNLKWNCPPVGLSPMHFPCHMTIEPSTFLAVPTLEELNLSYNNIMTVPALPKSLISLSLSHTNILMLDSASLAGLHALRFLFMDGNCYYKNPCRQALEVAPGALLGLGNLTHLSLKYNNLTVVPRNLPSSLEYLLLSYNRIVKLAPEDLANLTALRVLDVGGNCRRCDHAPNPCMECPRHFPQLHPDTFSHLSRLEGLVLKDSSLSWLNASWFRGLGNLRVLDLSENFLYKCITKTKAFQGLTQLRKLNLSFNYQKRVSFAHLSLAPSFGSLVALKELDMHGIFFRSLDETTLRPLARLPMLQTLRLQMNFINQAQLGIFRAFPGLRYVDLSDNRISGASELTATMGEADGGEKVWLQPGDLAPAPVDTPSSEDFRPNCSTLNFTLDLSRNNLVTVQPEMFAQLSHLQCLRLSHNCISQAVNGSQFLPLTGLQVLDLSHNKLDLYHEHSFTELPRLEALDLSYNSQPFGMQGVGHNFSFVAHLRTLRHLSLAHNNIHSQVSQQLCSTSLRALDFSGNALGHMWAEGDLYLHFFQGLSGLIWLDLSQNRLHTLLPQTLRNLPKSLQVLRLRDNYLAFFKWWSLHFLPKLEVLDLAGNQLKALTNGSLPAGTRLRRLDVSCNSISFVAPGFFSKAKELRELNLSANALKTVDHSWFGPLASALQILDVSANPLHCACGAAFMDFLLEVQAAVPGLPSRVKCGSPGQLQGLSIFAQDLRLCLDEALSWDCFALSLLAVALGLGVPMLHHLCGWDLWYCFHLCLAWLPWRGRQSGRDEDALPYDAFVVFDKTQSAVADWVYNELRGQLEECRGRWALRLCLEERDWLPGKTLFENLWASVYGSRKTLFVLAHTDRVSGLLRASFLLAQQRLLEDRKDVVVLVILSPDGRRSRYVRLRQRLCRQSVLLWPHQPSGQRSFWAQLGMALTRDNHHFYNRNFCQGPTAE
Procedure, shortened: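 Agonists used: gardiquimod 7.5 μM (TLR7), R848 15.9 μM (TLR8), ODN2006 5 nM (TLR9), added after 30 min room-temperature compound pre-treatment (0.05 nM–50 μM) of receptor-overexpressing HEK-Blue cells. SEAP reporter (NF-κB/AP-1 driven) read after 22 h at 37 °C; inhibition scaled between agonist+DMSO and reference-inhibitor wells.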

Row | pIC50 (human TLR7) | pIC50 (human TLR9) | SMILES
1 | 5.81 | 5.56 | Cc1cc(-c2ccc3c(c2)[nH]c(=O)n3C2CCN(C(C)C)CC2)cn2ncnc12 [Example 5, 1-(1-isopropylpiperidin-4-yl)-5-(8-methyl-[1,2,4]triazolo[1,5-a]pyridin-6-yl)-1,3-dihydro-2H-benzo[d]imidazol-2-one]
2 | 7.54 | 4.87 | CCCN1CCC[C@H](n2c(=O)[nH]c3cc(-c4cc(OC)c5ncnn5c4)c(C(C)C)cc32)C1 [Example 121, (S)-6-isopropyl-5-(8-methoxy-[1,2,4]triazolo[1,5-a]pyridin-6-yl)-1-(1-propylpiperidin-3-yl)-1,3-dihydro-2H-benzo[d]imidazol-2-one]
3 | 8.54 | 6.21 | COc1cc(-c2cc3[nH]c(=O)n([C@@H]4CCCN(C)C4)c3cc2C(F)(F)F)cn2ncnc12 [Example 114, (R)-5-(8-methoxy-[1,2,4]triazolo[1,5-a]pyridin-6-yl)-1-(1-methylpiperidin-3-yl)-6-(trifluoromethyl)-1,3-dihydro-2H-benzo[d]imidazol-2-one]
4 | 7.20 | 4.68 | COc1cc(-c2cc3[nH]c(=O)n([C@H]4CCCN(C5CCOCC5)C4)c3cc2C(C)C)cn2ncnc12 [Example 124, (S)-6-isopropyl-5-(8-methoxy-[1,2,4]triazolo[1,5-a]pyridin-6-yl)-1-(1-(tetrahydro-2H-pyran-4-yl)piperidin-3-yl)-1,3-dihydro-2H-benzo[d]imidazol-2-one]
5 | 7.15 | 5.84 | Cc1cc2c(cc1-c1cc(C)c3ncnn3c1)[nH]c(=O)n2[C@@H]1CCCN(C(=O)CN(C)C)C1 [Example 104, (R)-1-(1-(dimethylglycyl)piperidin-3-yl)-6-methyl-5-(8-methyl-[1,2,4]triazolo[1,5-a]pyridin-6-yl)-1,3-dihydro-2H-benzo[d]imidazol-2-one]
6 | 8.89 | 5.19 | COc1cc(-c2cc3[nH]c(=O)n([C@@H]4CCCN(CC5CCC5)C4)c3cc2C(C)C)cn2ncnc12 [Example 140, (R)-1-(1-(cyclobutylmethyl)piperidin-3-yl)-6-isopropyl-5-(8-methoxy-[1,2,4]triazolo[1,5-a]pyridin-6-yl)-1,3-dihydro-2H-benzo[d]imidazol-2-one]
7 | 8.67 | 4.63 | COc1cc(-c2cc3[nH]c(=O)n(C4CCN(C)CC4)c3cc2C(C)C)cn2ncnc12 [Example 154, 6-isopropyl-5-(8-methoxy-[1,2,4]triazolo[1,5-a]pyridin-6-yl)-1-(1-methylpiperidin-4-yl)-1,3-dihydro-2H-benzo[d]imidazol-2-one]
8 | 8.70 | 5.03 | CCCN1CCC[C@@H](n2c(=O)[nH]c3cc(-c4cc(OC)c5ncnn5c4)c(C(C)C)cc32)C1 [Example 134, (R)-6-isopropyl-5-(8-methoxy-[1,2,4]triazolo[1,5-a]pyridin-6-yl)-1-(1-propylpiperidin-3-yl)-1,3-dihydro-2H-benzo[d]imidazol-2-one]
9 | 7.13 | 4.84 | Cc1cc(-c2cc(C)c3ncnn3c2)cc2[nH]c(=O)n(C3CCN(CC(=O)N(C)C)CC3)c12 [Example 109, N,N-dimethyl-2-(4-(7-methyl-5-(8-methyl-[1,2,4]triazolo[1,5-a]pyridin-6-yl)-2-oxo-2,3-dihydro-1H-benzo[d]imidazol-1-yl)piperidin-1-yl)acetamide]
10 | 6.15 | < 4.30 | Cc1cc2c(cc1-c1cc(C)c3ncnn3c1)[nH]c(=O)n2[C@@H]1CCCN(CC(N)=O)C1 [Example 94, (R)-2-(3-(6-methyl-5-(8-methyl-[1,2,4]triazolo[1,5-a]pyridin-6-yl)-2-oxo-2,3-dihydro-1H-benzo[d]imidazol-1-yl)piperidin-1-yl)acetamide]
11 | 7.96 | 5.06 | CCC(CC)CN1CCC(n2c(=O)[nH]c3cc(-c4cc(OC)c5ncnn5c4)c(C(C)C)cc32)CC1 [Example 165, 1-(1-(2-ethylbutyl)piperidin-4-yl)-6-isopropyl-5-(8-methoxy-[1,2,4]triazolo[1,5-a]pyridin-6-yl)-1,3-dihydro-2H-benzo[d]imidazol-2-one]
12 | 8.26 | 4.82 | CCCN(CCC)[C@H]1CC[C@@H](n2c(=O)[nH]c3cc(-c4cc(OC)c5ncnn5c4)c(CC)cc32)CC1 [Example 168, 1-((1s,4s)-4-(dipropylamino)cyclohexyl)-6-ethyl-5-(8-methoxy-[1,2,4]triazolo[1,5-a]pyridin-6-yl)-1,3-dihydro-2H-benzo[d]imidazol-2-one]

Row | SMILES | pIC50 (human TLR7) | pIC50 (human TLR9)
13 | Cc1cc(-c2cc(C)c3ncnn3c2)cc2[nH]c(=O)n(C3CCN(C)CC3)c12 [Example 106, 7-methyl-5-(8-methyl-[1,2,4]triazolo[1,5-a]pyridin-6-yl)-1-(1-methylpiperidin-4-yl)-1,3-dihydro-2H-benzo[d]imidazol-2-one] | 7.53 | 5.43
14 | COc1cc(-c2cc3[nH]c(=O)n(C4CCN(C5CCOC5)CC4)c3cc2C(C)C)cn2ncnc12 (stereo not shown) [Example 162, 6-isopropyl-5-(8-methoxy-[1,2,4]triazolo[1,5-a]pyridin-6-yl)-1-(1-(tetrahydrofuran-3-yl)piperidin-4-yl)-1,3-dihydro-2H-benzo[d]imidazol-2-one] | 7.14 | < 4.30
15 | COc1cc(-c2cc3[nH]c(=O)n(C4CCN(CC5CCOC5)CC4)c3cc2C(C)C)cn2ncnc12 (stereo not shown) [Example 160, 6-isopropyl-5-(8-methoxy-[1,2,4]triazolo[1,5-a]pyridin-6-yl)-1-(1-((tetrahydrofuran-3-yl)methyl)piperidin-4-yl)-1,3-dihydro-2H-benzo[d]imidazol-2-one] | 8.06 | 4.85
16 | COc1cc(-c2cc3[nH]c(=O)n(C4CCN(CC5CCOCC5)CC4)c3cc2C(C)C)cn2ncnc12 [Example 159, 6-isopropyl-5-(8-methoxy-[1,2,4]triazolo[1,5-a]pyridin-6-yl)-1-(1-((tetrahydro-2H-pyran-4-yl)methyl)piperidin-4-yl)-1,3-dihydro-2H-benzo[d]imidazol-2-one] | 8.14 | 5.14
17 | COc1cc(-c2cc3[nH]c(=O)n(C4CCN(CC5CC5)CC4)c3cc2C(C)C)cn2ncnc12 [Example 161, 1-(1-(cyclopropylmethyl)piperidin-4-yl)-6-isopropyl-5-(8-methoxy-[1,2,4]triazolo[1,5-a]pyridin-6-yl)-1,3-dihydro-2H-benzo[d]imidazol-2-one] | 8.14 | 4.95

Source: patent US12187723B2 (BRISTOL-MYERS SQUIBB COMPANY, priority 2019, dated 2025)
